Measurements published in patent US11878973B2, “Bicyclic compounds and their uses” (NOVARTIS AG, priority 2021, dated 2024).
Where two headings read alike, the source gives them in different places.

Assays:
WRN helicase = WRN helicase (Homo sapiens (Human), UniProt Q14191); test: In vitro enzymatic activity assay on WRN helicase (DNA dependent ATPase assay, ADP-Glo); format: biochemical; details: geometric means of at least 2 determinations; read-out: WRN ATPase Activity (IC50)
Outline: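 DNA-dependent ATPase activity was measured by ADP-Glo luminescent ADP detection after a 30-min room-temperature reaction. The reaction contained 10 nM WRN (residues N517-P1238), 0.2 nM FLAP26 and 300 µM ATP at pH 7.5 with 2 mM MgCl2. Compounds were tested as 10-point half-log series in duplicate; IC50 values are geometric means from at least two independent experiments.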

SW48 cells = test: Proliferation assay SW48 (CellTiterGlo, 96 hours)
DLD1-WRN-KO cells = test: Proliferation assay DLD1-WRN-KO (CellTiterGlo, 96 hours; off-target effects); details: read-out: Proliferation Assay DLD1-WRN-KO (GI50)
[1] = Homo sapiens, SW48, read-out: Proliferation Assay SW48 (GI50)

WRN helicase, sequence (Q14191 517-1238): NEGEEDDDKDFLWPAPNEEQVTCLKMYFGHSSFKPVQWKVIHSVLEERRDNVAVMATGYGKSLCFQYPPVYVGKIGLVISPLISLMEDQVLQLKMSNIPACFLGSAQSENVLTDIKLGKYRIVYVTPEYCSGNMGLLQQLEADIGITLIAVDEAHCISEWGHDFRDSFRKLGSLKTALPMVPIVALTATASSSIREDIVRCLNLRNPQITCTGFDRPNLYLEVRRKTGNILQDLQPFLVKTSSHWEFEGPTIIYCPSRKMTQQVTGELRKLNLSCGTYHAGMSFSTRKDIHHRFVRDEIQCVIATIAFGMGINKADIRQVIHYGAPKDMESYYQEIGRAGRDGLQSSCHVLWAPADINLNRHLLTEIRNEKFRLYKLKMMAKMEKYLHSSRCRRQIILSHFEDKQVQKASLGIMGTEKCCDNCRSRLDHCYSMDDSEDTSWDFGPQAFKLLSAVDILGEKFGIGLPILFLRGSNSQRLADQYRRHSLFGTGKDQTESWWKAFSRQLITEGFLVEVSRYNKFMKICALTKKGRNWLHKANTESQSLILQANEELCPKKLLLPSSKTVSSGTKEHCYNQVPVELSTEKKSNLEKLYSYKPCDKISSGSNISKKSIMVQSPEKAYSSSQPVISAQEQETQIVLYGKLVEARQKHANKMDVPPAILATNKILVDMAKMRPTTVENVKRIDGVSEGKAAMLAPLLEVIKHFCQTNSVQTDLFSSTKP

IC50 (WRN helicase) [nM]	GI50 (SW48 cells; [1]) [nM]	GI50 (DLD1-WRN-KO cells; Homo sapiens) [nM]	GI50 (SW48 cells; read-out: Proliferation Assay SW48 (GI50), SW48 cell line, geometric means of at least 2 determinations) [nM]	GI50 (DLD1-WRN-KO cells; DLD1-WRN-KO cell line, geometric means of at least 2 determinations) [nM]	Structure (SMILES)
50	60	> 10000			CCc1c(N2CCN(C(=O)c3nccc(Cl)c3O)CC2)c(=O)n2nc(C3=CCOCC3)nc2n1CC(=O)Nc1cc(F)c(C(F)(F)F)cc1C [Example 95, 2-(6-(4-(4-chloro-3-hydroxypicolinoyl)piperazin-1-yl)-2-(3,6-dihydro-2H-pyran-4-yl)-5-ethyl-7-oxo-[1,2,4]triazolo[1,5-a]pyrimidin-4(7H)-yl)-N-(5-fluoro-2-methyl-4-(trifluoromethyl)phenyl)acetamide]
40	90	> 10000			CCc1c(N2CCN(C(=O)c3nccc(C)c3O)CC2)c(=O)n2nc(C3=CCOCC3)nc2n1CC(=O)Nc1ccc(C(F)(F)F)cc1C [Example 66, 2-(2-(3,6-dihydro-2H-pyran-4-yl)-5-ethyl-6-(4-(3-hydroxy-4-methylpicolinoyl)piperazin-1-yl)-7-oxo-[1,2,4]triazolo[1,5-a]pyrimidin-4(7H)-yl)-N-(2-methyl-4-(trifluoromethyl)phenyl)acetamide]
60	70	> 10000			CCc1c(N2CCN(C(=O)c3ncccc3O)CC2)c(=O)n2nc(C3=CCC(OC)CC3)nc2n1CC(=O)Nc1ccc(C(F)(F)F)cc1C (racemic) [Example 80, rac-2-(5-ethyl-6-(4-(3-hydroxypicolinoyl)piperazin-1-yl)-2-(4-methoxycyclohex-1-en-1-yl)-7-oxo-[1,2,4]triazolo[1,5-a]pyrimidin-4(7H)-yl)-N-(2-methyl-4-(trifluoromethyl)phenyl)acetamide]
60	80	6600			CCc1c(N2CCN(C(=O)c3ncccc3O)CC2)c(=O)n2nc(C3=CCOCC3)nc2n1CC(=O)Nc1cc(F)c(C(F)(F)F)cc1Cl [Example 116, N-(2-chloro-5-fluoro-4-(trifluoromethyl)phenyl)-2-(2-(3,6-dihydro-2H-pyran-4-yl)-5-ethyl-6-(4-(3-hydroxypicolinoyl)piperazin-1-yl)-7-oxo-[1,2,4]triazolo[1,5-a]pyrimidin-4(7H)-yl)acetamide]
60	110	> 10000			CCc1c(N2CCN(C(=O)c3ncnc(C)c3O)CC2)c(=O)n2nc(C3=CCOCC3)nc2n1CC(=O)Nc1ccc(Br)cc1Cl [Example 106, N-(4-bromo-2-chlorophenyl)-2-(2-(3,6-dihydro-2H-pyran-4-yl)-5-ethyl-6-(4-(5-hydroxy-6-methylpyrimidine-4-carbonyl)piperazin-1-yl)-7-oxo-[1,2,4]triazolo[1,5-a]pyrimidin-4(7H)-yl)acetamide]
50	80	> 10000			CCc1c(N2CCN(C(=O)c3ncccc3O)CC2)c(=O)n2nc(C3=CCOCC3)nc2n1CC(=O)Nc1ccc(C(F)(F)F)cc1F [Example 92, 2-(2-(3,6-dihydro-2H-pyran-4-yl)-5-ethyl-6-(4-(3-hydroxypicolinoyl)piperazin-1-yl)-7-oxo-[1,2,4]triazolo[1,5-a]pyrimidin-4(7H)-yl)-N-(2-fluoro-4-(trifluoromethyl)phenyl)acetamide]
70	50	> 10000			CCc1cc(C)c(NC(=O)Cn2c(CC)c(N3CCN(C(=O)c4ncccc4O)CC3)c(=O)n3nc(C4=CCOCC4)nc23)cc1Cl [Example 104, N-(5-chloro-4-ethyl-2-methylphenyl)-2-(2-(3,6-dihydro-2H-pyran-4-yl)-5-ethyl-6-(4-(3-hydroxypicolinoyl)piperazin-1-yl)-7-oxo-[1,2,4]triazolo[1,5-a]pyrimidin-4(7H)-yl)acetamide]

The next lines start with the compound.

Structure (SMILES)	IC50 (WRN helicase) [nM]	GI50 (SW48 cells; [1]) [nM]	GI50 (DLD1-WRN-KO cells; Homo sapiens) [nM]	GI50 (SW48 cells; read-out: Proliferation Assay SW48 (GI50), SW48 cell line, geometric means of at least 2 determinations) [nM]	GI50 (DLD1-WRN-KO cells; DLD1-WRN-KO cell line, geometric means of at least 2 determinations) [nM]
CCc1c(N2CCN(C(=O)c3ncccc3O)CC2)c(=O)n2nc(N3CCC[C@H](F)C3)nc2n1CC(=O)Nc1ccc(C(F)(F)F)nc1Cl [Example 16b, (S)—N-(2-chloro-6-(trifluoromethyl)pyridin-3-yl)-2-(5-ethyl-2-(3-fluoropiperidin-1-yl)-6-(4-(3-hydroxypicolinoyl)piperazin-1-yl)-7-oxo-[1,2,4]triazolo[1,5-a]pyrimidin-4(7H)-yl)acetamide]	180	230	> 10000		
CCc1c(N2CCN(C(=O)c3nccc(C)c3O)CC2)c(=O)n2nc(C3=CCOCC3)nc2n1CC(=O)Nc1ccc(C(F)(F)F)cc1 [Example 75, 2-(2-(3,6-dihydro-2H-pyran-4-yl)-5-ethyl-6-(4-(3-hydroxy-4-methylpicolinoyl)piperazin-1-yl)-7-oxo-[1,2,4]triazolo[1,5-a]pyrimidin-4(7H)-yl)-N-(4-(trifluoromethyl)phenyl)acetamide]	50	80	> 10000		
Cc1ccc(O)c(C(=O)N2CCN(c3c(C)n(CC(=O)Nc4ccc(C(F)(F)F)cc4)c4nc(C5=CCOCC5)nn4c3=O)CC2)n1 [Example 91, 2-(2-(3,6-dihydro-2H-pyran-4-yl)-6-(4-(3-hydroxy-6-methylpicolinoyl)piperazin-1-yl)-5-methyl-7-oxo-[1,2,4]triazolo[1,5-a]pyrimidin-4(7H)-yl)-N-(4-(trifluoromethyl)phenyl)acetamide]	80	320	> 10000		
Cc1nc(C(F)(F)F)ccc1NC(=O)Cn1c(C)c(N2CCN(C(=O)c3ncccc3O)CC2)c(=O)n2nc(C3=CCOCC3)nc12 [Example 129, 2-(2-(3,6-dihydro-2H-pyran-4-yl)-6-(4-(3-hydroxypicolinoyl)piperazin-1-yl)-5-methyl-7-oxo-[1,2,4]triazolo[1,5-a]pyrimidin-4(7H)-yl)-N-(2-methyl-6-(trifluoromethyl)pyridin-3-yl)acetamide]	500	2550	> 10000		
CCc1c(N2CCN(C(=O)c3ncccc3O)CC2)c(=O)n2nc(C3=CCC(OC)CC3)nc2n1CC(=O)Nc1ccc(C(F)(F)F)nc1C (racemic) [Example 26, rac-2-(5-ethyl-6-(4-(3-hydroxypicolinoyl)piperazin-1-yl)-2-(4-methoxycyclohex-1-en-1-yl)-7-oxo-[1,2,4]triazolo[1,5-a]pyrimidin-4(7H)-yl)-N-(2-methyl-6-(trifluoromethyl)pyridin-3-yl)acetamide]	250	80	> 10000		
CCc1c(N2CCN(C(=O)c3ncccc3O)CC2)c(=O)n2nc(N3C[C@@H](F)[C@@H](F)C3)nc2n1CC(=O)Nc1ccc(C(F)(F)F)cc1C [Example 23, 2-(2-((3R,4S)-3,4-difluoropyrrolidin-1-yl)-5-ethyl-6-(4-(3-hydroxypicolinoyl)piperazin-1-yl)-7-oxo-[1,2,4]triazolo[1,5-a]pyrimidin-4(7H)-yl)-N-(2-methyl-4-(trifluoromethyl)phenyl)acetamide]	260	1540	> 10000		
CCc1c(N2CCN(C(=O)c3ncccc3O)CC2)c(=O)n2nc(N3CCOCC3)nc2n1CC(=O)Nc1cc(F)c(C(F)(F)F)cc1C [Example 5, 2-(5-ethyl-6-(4-(3-hydroxypicolinoyl)piperazin-1-yl)-2-morpholino-7-oxo-[1,2,4]triazolo[1,5-a]pyrimidin-4(7H)-yl)-N-(5-fluoro-2-methyl-4-(trifluoromethyl)phenyl)acetamide]	90	120	> 10000		
CCc1c(N2CCN(C(=O)c3ncnc(C)c3O)CC2)c(=O)n2nc(C3=CCOCC3)nc2n1CC(=O)Nc1ccc(C(F)(F)F)c(F)c1C [Example 93, 2-(2-(3,6-dihydro-2H-pyran-4-yl)-5-ethyl-6-(4-(5-hydroxy-6-methylpyrimidine-4-carbonyl)piperazin-1-yl)-7-oxo-[1,2,4]triazolo[1,5-a]pyrimidin-4(7H)-yl)-N-(3-fluoro-2-methyl-4-(trifluoromethyl)phenyl)acetamide]	80	70	> 10000		
CCc1c(N2CCN(C(=O)c3ncnc(C)c3O)C[C@H]2C)c(=O)n2nc(C3=CCOCC3)nc2n1CC(=O)Nc1ccc(C(F)(F)F)cc1Cl [Example 88, (R)—N-(2-chloro-4-(trifluoromethyl)phenyl)-2-(2-(3,6-dihydro-2H-pyran-4-yl)-5-ethyl-6-(4-(5-hydroxy-6-methylpyrimidine-4-carbonyl)-2-methylpiperazin-1-yl)-7-oxo-[1,2,4]triazolo[1,5-a]pyrimidin-4(7H)-yl)acetamide]	370	760	> 10000		
CCc1c(N2CCN(C(=O)c3ncnc(C)c3O)C[C@@H]2C)c(=O)n2nc(C3=CCOCC3)nc2n1CC(=O)Nc1ccc(C(F)(F)F)cc1Cl [Example 87, (S)—N-(2-chloro-4-(trifluoromethyl)phenyl)-2-(2-(3,6-dihydro-2H-pyran-4-yl)-5-ethyl-6-(4-(5-hydroxy-6-methylpyrimidine-4-carbonyl)-2-methylpiperazin-1-yl)-7-oxo-[1,2,4]triazolo[1,5-a]pyrimidin-4(7H)-yl)acetamide]	110	60	> 10000		
CCc1c(N2CCN(C(=O)c3ncnc(C)c3O)CC2)c(=O)n2nc(C3=CCOCC3)nc2n1CC(=O)Nc1ccc(S(F)(F)(F)(F)F)cc1Cl [Example 51, N-(2-chloro-4-(pentafluorosulfanyl)phenyl)-2-(2-(3,6-dihydro-2H-pyran-4-yl)-5-ethyl-6-(4-(5-hydroxy-6-methylpyrimidine-4-carbonyl)piperazin-1-yl)-7-oxo-[1,2,4]triazolo[1,5-a]pyrimidin-4(7H)-yl)acetamide]	40	30	> 10000		
CCc1c(N2CCN(C(=O)c3ncnc(C)c3O)[C@@H](C)[C@H]2C)c(=O)n2nc(C3=CCOCC3)nc2n1CC(=O)Nc1ccc(C(F)(F)F)cc1Cl (single isomer, unassigned) [Example 121]	860			1740	> 10000
